Legend:
Assay in all cases: KINOMEscan competition binding
[1] = target: ACVR2B (human) (UniProt Q13705); conditions: compound 10.0 µM
[2] = target: CAMKK1 (human) (UniProt Q8N5S9); conditions: compound 10.0 µM
[3] = target: CDK7 (human) (UniProt P50613); conditions: compound 10.0 µM
[4] = target: CHUK (human) (UniProt O15111); conditions: compound 10.0 µM
[5] = target: CLK2 (human) (UniProt P49760); conditions: compound 10.0 µM
[6] = target: CLK4 (human) (UniProt Q9HAZ1); conditions: compound 10.0 µM
[7] = target: DAPK2 (human) (UniProt Q9UIK4); conditions: compound 10.0 µM
Chain of DAPK2 (human) (Q9UIK4 whole entry, looked up): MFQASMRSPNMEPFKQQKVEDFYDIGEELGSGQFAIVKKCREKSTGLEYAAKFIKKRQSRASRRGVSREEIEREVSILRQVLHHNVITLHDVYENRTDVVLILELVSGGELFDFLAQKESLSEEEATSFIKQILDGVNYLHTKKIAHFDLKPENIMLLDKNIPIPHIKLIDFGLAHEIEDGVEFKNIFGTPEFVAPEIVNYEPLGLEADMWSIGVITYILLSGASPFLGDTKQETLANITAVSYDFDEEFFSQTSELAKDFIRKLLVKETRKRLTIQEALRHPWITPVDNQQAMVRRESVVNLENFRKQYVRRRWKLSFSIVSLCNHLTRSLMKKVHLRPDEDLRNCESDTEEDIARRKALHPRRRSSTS

[8] = target: DMPK (human) (UniProt Q09013); conditions: compound 10.0 µM
[9] = target: DYRK1B (human) (UniProt Q9Y463); conditions: compound 10.0 µM
[10] = test system: FLT3 (human), P36888 [N841I]; conditions: compound 10.0 µM
[11] = target: KIT (human) (UniProt P10721); conditions: compound 10.0 µM
Chain of KIT (human) (P10721 whole entry, looked up): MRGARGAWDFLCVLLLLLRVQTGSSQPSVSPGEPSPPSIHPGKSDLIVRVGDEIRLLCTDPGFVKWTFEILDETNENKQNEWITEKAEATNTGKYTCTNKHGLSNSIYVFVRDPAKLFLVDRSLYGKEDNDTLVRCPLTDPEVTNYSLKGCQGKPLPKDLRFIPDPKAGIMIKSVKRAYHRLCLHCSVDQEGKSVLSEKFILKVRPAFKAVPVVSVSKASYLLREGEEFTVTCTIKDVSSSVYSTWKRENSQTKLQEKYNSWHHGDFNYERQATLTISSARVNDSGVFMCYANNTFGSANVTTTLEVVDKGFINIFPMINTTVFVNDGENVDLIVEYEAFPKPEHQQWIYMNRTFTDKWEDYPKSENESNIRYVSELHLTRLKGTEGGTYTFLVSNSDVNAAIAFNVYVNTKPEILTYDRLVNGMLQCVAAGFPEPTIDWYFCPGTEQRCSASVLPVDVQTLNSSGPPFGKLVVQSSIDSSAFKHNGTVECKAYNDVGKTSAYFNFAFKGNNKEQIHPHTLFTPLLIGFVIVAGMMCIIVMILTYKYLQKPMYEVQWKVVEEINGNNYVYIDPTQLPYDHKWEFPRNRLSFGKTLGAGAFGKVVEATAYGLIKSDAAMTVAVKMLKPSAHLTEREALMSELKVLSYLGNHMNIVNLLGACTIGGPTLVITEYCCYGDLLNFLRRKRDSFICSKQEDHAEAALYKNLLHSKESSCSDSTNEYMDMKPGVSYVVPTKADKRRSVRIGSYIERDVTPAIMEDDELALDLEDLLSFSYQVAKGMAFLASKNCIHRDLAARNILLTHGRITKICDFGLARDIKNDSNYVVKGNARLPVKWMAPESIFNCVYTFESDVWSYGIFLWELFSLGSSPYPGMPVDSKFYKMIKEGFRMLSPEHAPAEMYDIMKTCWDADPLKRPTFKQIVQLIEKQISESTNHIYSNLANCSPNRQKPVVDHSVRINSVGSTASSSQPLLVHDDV

[12] = test system: KIT (human), P10721 [D816V]; conditions: compound 10.0 µM
Chain of KIT (human), P10721 [D816V] (P10721 whole entry D816V, looked up): as the sequence (P10721 whole entry, looked up) above, with D816V counted along it

[13] = target: MAP2K3 (human) (UniProt P46734); conditions: compound 10.0 µM
Chain of MAP2K3 (human) (P46734 whole entry, looked up): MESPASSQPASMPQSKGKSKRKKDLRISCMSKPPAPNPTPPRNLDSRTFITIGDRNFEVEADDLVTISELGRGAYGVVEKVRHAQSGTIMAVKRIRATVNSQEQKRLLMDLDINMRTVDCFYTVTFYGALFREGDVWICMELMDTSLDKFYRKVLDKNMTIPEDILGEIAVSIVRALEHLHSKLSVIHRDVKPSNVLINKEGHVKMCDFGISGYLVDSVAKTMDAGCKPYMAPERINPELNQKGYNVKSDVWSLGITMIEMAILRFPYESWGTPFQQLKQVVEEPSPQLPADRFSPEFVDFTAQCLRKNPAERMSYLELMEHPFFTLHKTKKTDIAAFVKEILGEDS

[14] = target: MAP4K2 (human) (UniProt Q12851); conditions: compound 10.0 µM
[15] = target: MAPK15 (human) (UniProt Q8TD08); conditions: compound 10.0 µM
[16] = target: PIM2 (human) (UniProt Q9P1W9); conditions: compound 10.0 µM
Chain of PIM2 (human) (Q9P1W9 whole entry, looked up): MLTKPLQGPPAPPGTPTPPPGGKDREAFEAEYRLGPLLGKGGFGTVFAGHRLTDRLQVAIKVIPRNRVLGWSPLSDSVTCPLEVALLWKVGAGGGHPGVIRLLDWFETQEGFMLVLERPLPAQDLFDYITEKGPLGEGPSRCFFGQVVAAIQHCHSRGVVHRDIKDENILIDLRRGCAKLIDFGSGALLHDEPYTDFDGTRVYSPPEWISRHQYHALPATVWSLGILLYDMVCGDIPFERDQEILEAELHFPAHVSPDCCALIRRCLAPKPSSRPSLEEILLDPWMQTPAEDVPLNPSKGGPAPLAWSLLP

[17] = target: PIM3 (human) (UniProt Q86V86); conditions: compound 10.0 µM
[18] = target: PRKD3 (human) (UniProt O94806); conditions: compound 10.0 µM
[19] = target: RIOK1 (human) (UniProt Q9BRS2); conditions: compound 10.0 µM
Chain of RIOK1 (human) (Q9BRS2 whole entry, looked up): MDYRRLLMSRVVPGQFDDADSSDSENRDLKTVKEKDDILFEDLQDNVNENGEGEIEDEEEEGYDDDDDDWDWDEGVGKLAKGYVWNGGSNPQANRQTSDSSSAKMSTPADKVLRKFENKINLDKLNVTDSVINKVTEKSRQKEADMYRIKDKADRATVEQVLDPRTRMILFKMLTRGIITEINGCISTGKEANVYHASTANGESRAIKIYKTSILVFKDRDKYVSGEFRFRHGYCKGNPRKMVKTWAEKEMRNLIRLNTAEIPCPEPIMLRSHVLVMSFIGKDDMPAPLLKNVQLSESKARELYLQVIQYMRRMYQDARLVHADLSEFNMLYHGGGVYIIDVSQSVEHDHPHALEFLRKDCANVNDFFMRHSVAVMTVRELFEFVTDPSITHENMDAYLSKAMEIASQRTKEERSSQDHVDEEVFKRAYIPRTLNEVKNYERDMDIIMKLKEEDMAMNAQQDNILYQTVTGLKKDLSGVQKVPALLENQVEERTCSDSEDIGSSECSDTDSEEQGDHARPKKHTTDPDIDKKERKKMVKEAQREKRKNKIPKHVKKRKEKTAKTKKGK

[20] = target: RIOK3 (human) (UniProt O14730); conditions: compound 10.0 µM
[21] = target: RIPK2 (human) (UniProt O43353); conditions: compound 10.0 µM
[22] = target: STK11 (human) (UniProt Q15831); conditions: compound 10.0 µM
[23] = target: STK17A (human) (UniProt Q9UEE5); conditions: compound 10.0 µM
[24] = target: TAOK1 (human) (UniProt Q7L7X3); conditions: compound 10.0 µM
[25] = target: AURKB (human) (UniProt Q96GD4); conditions: for kinase still bound, per cent of control: compound 10.0 µM
[26] = target: BRSK2 (human) (UniProt Q8IWQ3); conditions: compound 10.0 µM
Chain of BRSK2 (human) (Q8IWQ3 whole entry, looked up): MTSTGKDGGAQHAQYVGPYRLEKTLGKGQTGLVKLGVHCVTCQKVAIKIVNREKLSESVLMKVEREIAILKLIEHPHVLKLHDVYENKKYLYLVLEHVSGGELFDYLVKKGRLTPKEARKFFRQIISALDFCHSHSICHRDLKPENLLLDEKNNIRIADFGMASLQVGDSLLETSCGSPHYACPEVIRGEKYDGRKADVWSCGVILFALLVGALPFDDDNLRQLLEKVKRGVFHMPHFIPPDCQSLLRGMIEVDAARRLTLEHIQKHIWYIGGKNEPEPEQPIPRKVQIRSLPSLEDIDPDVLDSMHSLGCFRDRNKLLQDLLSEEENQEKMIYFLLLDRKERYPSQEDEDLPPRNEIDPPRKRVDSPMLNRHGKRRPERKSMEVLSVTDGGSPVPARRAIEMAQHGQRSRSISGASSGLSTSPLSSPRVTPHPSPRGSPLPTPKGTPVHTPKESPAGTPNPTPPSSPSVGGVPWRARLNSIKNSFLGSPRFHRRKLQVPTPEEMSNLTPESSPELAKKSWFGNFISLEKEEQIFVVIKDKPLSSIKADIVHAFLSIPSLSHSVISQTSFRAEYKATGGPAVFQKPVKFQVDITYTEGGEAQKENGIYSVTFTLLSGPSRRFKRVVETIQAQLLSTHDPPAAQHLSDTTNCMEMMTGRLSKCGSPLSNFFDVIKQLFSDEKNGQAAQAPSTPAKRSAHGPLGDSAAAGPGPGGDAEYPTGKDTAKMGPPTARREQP

[27] = target: CDK16 (human) (UniProt Q00536); conditions: compound 10.0 µM
[28] = test system: EGFR (human), P00533 [G719S]; conditions: compound 10.0 µM
[29] = test system: FLT3 (human), P36888 [D835H]; conditions: compound 10.0 µM
[30] = target: JAK1 JH2 pseudokinase (human) (UniProt P23458); conditions: compound 10.0 µM
[31] = target: MYLK3 (human) (UniProt Q32MK0); conditions: compound 10.0 µM
[32] = target: PHKG2 (human) (UniProt P15735); conditions: compound 10.0 µM
[33] = target: RPS6KA6 KD2 (human) (UniProt Q9UK32); conditions: compound 10.0 µM
[34] = target: STK16 (human) (UniProt O75716); conditions: compound 10.0 µM
Chain of STK16 (human) (O75716 whole entry, looked up): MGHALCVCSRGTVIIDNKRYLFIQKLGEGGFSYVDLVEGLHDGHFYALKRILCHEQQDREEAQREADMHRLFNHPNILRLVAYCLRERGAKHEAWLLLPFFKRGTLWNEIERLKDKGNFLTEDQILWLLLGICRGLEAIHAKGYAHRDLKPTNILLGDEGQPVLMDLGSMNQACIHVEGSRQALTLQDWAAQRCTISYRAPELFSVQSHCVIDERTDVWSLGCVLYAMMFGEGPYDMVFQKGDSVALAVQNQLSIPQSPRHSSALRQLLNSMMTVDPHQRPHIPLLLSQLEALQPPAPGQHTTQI

[35] = target: STK24 (human) (UniProt Q9Y6E0); conditions: compound 10.0 µM
[36] = target: TLK1 (human) (UniProt Q9UKI8); conditions: compound 10.0 µM
[37] = target: TNK1 (human) (UniProt Q13470); conditions: compound 10.0 µM
Chain of TNK1 (human) (Q13470 whole entry, looked up): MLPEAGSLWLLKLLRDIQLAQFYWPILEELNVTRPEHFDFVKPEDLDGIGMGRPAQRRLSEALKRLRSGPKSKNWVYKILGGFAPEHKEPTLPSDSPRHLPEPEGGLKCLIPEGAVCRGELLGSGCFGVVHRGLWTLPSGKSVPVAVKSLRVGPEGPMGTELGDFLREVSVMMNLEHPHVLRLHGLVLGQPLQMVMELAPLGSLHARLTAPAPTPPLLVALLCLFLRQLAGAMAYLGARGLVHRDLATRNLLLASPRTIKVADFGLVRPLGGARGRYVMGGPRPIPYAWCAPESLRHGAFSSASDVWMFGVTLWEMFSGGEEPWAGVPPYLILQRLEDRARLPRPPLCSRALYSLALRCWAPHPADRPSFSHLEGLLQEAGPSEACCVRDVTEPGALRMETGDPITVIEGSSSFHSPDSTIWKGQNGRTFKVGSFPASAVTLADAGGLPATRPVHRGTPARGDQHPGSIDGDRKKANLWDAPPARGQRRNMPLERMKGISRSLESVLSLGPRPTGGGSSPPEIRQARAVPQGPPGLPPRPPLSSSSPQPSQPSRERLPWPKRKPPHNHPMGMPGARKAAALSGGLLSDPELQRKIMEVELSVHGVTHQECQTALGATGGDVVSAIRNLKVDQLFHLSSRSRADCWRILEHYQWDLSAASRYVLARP

[38] = target: TYK2 JH2 pseudokinase (human) (UniProt P29597); conditions: compound 10.0 µM
[39] = target: CSNK1G1 (human) (UniProt Q9HCP0); conditions: compound 10.0 µM
[40] = target: DCLK3 (human) (UniProt Q9C098); conditions: compound 10.0 µM
[41] = test system: EGFR (human), P00533 [747-751 del / S ins]; conditions: compound 10.0 µM
[42] = target: ULK2 (human) (UniProt Q8IYT8); conditions: compound 10.0 µM

Chain of CDK7 (human) (P50613 whole entry, looked up): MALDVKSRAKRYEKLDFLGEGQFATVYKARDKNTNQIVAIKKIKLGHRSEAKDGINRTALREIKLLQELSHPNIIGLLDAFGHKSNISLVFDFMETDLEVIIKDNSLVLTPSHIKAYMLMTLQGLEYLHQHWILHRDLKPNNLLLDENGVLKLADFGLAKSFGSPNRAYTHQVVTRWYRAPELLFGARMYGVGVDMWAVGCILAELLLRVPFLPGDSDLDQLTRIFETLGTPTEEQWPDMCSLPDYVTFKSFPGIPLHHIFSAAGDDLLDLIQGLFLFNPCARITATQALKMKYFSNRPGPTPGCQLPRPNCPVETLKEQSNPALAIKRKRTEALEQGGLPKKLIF

SMILES | kinase still bound, per cent of control [1] | kinase still bound, per cent of control [2] | kinase still bound, per cent of control [3] | kinase still bound, per cent of control [4] | kinase still bound, per cent of control [5] | kinase still bound, per cent of control [6] | kinase still bound, per cent of control [7] | kinase still bound, per cent of control [9] | kinase still bound, per cent of control [10] | kinase still bound, per cent of control [11] | kinase still bound, per cent of control [12] | kinase still bound, per cent of control [13] | kinase still bound, per cent of control [14] | kinase still bound, per cent of control [15] | kinase still bound, per cent of control [16] | kinase still bound, per cent of control [17] | kinase still bound, per cent of control [19] | kinase still bound, per cent of control [20] | kinase still bound, per cent of control [22] | kinase still bound, per cent of control [23] | further results
CS(=O)(=O)Nc1ccc(-c2cc(/C=C3\SC(=N)NC3=O)c[nH]c2=O)cc1 | 12% | 33% | 26% | 15% | 5.2% | 6% | 2.2% | 3.2% | 30% | 22% | 19% | 10% | 12% | 0.1% | 3.4% | 6.1% | 11% | 6% | 7% | 3.4% | kinase still bound, per cent of control [8]: 6.4%; kinase still bound, per cent of control [18]: 33%; kinase still bound, per cent of control [21]: 11%; kinase still bound, per cent of control [24]: 23%
O=C1NC(=S)S/C1=C\c1ccc(-c2cncc3ccccc23)o1 | 25% | 5.6% |  | 8.4% | 3.1% | 6.1% | 9.3% | 13% | 4% | 21% | 9.6% |  |  | 9% | 0.55% | 2.7% | 3.7% | 5.5% | 17% | 0% | kinase still bound, per cent of control [25]: 27%; kinase still bound, per cent of control [26]: 29%; kinase still bound, per cent of control [27]: 5.2%; kinase still bound, per cent of control [28]: 27%; kinase still bound, per cent of control [29]: 7.4%; kinase still bound, per cent of control [30]: 8.5%; kinase still bound, per cent of control [31]: 8.7%; kinase still bound, per cent of control [32]: 8.1%; kinase still bound, per cent of control [33]: 5.4%; kinase still bound, per cent of control [34]: 9.8%; kinase still bound, per cent of control [35]: 12%; kinase still bound, per cent of control [36]: 5.8%; kinase still bound, per cent of control [37]: 8.4%; kinase still bound, per cent of control [38]: 5%
CS(=O)(=O)Nc1ccc(-c2cncc(/C=C3\SC(=N)NC3=O)c2)cc1 | 4.2% |  |  | 19% |  |  | 14% | 17% | 28% | 8.2% | 2.2% | 16% | 5.8% | 13% |  |  | 7.8% | 19% | 17% | 0.45% | kinase still bound, per cent of control [25]: 24%; kinase still bound, per cent of control [26]: 28%; kinase still bound, per cent of control [39]: 18%; kinase still bound, per cent of control [40]: 0.9%; kinase still bound, per cent of control [8]: 22%; kinase still bound, per cent of control [41]: 24%; kinase still bound, per cent of control [28]: 24%; kinase still bound, per cent of control [29]: 8.7%; kinase still bound, per cent of control [31]: 19%; kinase still bound, per cent of control [18]: 24%; kinase still bound, per cent of control [21]: 1.4%; kinase still bound, per cent of control [24]: 1.4%; kinase still bound, per cent of control [36]: 26%; kinase still bound, per cent of control [37]: 28%; kinase still bound, per cent of control [42]: 29%
N=C1NC(=O)/C(=C/c2ccc(-c3cncc4ccccc34)o2)S1 | 7.6% | 3.4% | 14% | 1.4% | 1.6% | 2.8% | 7.4% | 11% | 0.95% | 10% | 3.8% |  | 6.9% | 10% | 0.9% | 1.6% | 1.4% | 2.2% | 6% | 0.05% | Kd [25]: 210 nM; kinase still bound, per cent of control [25]: 0.8%; kinase still bound, per cent of control [26]: 7.1%; kinase still bound, per cent of control [27]: 9.8%; kinase still bound, per cent of control [40]: 30%; kinase still bound, per cent of control [28]: 26%; kinase still bound, per cent of control [29]: 3.3%; kinase still bound, per cent of control [30]: 13%; kinase still bound, per cent of control [31]: 0.55%; kinase still bound, per cent of control [32]: 10%; kinase still bound, per cent of control [18]: 26%; kinase still bound, per cent of control [33]: 8.6%; kinase still bound, per cent of control [34]: 2.6%; kinase still bound, per cent of control [35]: 16%; kinase still bound, per cent of control [24]: 10%; kinase still bound, per cent of control [36]: 28%; kinase still bound, per cent of control [37]: 14%
CSC1=NC(=O)/C(=C/c2c[nH]c(=O)c(-c3ccc(NS(C)(=O)=O)cc3)c2)S1 |  | 25% | 30% | 19% | 9.5% |  | 3.6% | 15% |  |  |  | 29% | 7.7% | 5% | 1.7% | 16% | 7.1% | 7.4% | 15% | 5% | kinase still bound, per cent of control [34]: 21%; kinase still bound, per cent of control [42]: 13%

From the kinase profiling compilation of Christmann-Franck et al. (2016)
